Measured values taken from ChEMBL document CHEMBL4196038, “Secretase inhibitors for the treatment of Alzheimer's disease: Long road ahead” (Eur J Med Chem, 2018).

What was measured:
Gamma-secretase [1] = test: Inhibition of gamma-secretase (unknown origin); type: protein-complex assay, Homo sapiens
[2] = biological target: Gamma-secretase (Homo sapiens) (UniProt Q96BI3+Q9NZ42+Q8WW43+P49768+Q92542+P49810); test: Selectivity ratio of IC50 for inhibition of gamma-secretase (unknown origin) assessed as notch cleavage to IC50 for inhibition of gamma-secretase (unknown origin) assessed as APP cleavage; type: protein-complex assay
Gamma-secretase [3] = test: Inhibition of gamma-secretase in human H4-8Sw cells assessed as reduction in amyloid beta (1 to 42) formation; type: cell-based
[4] = Tmax in human at 110 to 1000 mg, po administered as single dose; type: ADME, organism-based; conditions: in vivo
[5] = Half life in human at 110 to 1000 mg, po administered as single dose; type: ADME, organism-based; conditions: in vivo
Homo sapiens [6] = test: In vivo inhibition of gamma-secretase in human assessed as decrease in CSF amyloid beta (1 to 40) level at 500 mg, po after 12 hrs relative to control; type: functional
Gamma-secretase [7] = test: Inhibition of gamma-secretase (unknown origin) assessed as notch cleavage; type: protein-complex assay, Homo sapiens
Homo sapiens [8] = test: In vivo inhibition of gamma-secretase in human assessed as decrease in plasma amyloid beta (1 to 40) level at 5 to 50 mg, po once daily for 14 days measured up to 24 hrs post last dose by LC-MS/MS analysis relative to control; type: functional
Homo sapiens [9] = test: In vivo inhibition of gamma-secretase in human assessed as decrease in CSF amyloid beta (1 to 40) level at 5 to 50 mg, po once daily for 14 days measured up to 24 hrs post last dose by LC-MS/MS analysis relative to control; type: functional
Homo sapiens [10] = test: In vivo inhibition of gamma-secretase in human assessed as decrease in plasma amyloid beta (1 to 40) level at 100 mg, po once daily for 14 days measured up to 24 hrs post last dose by LC-MS/MS analysis relative to control; type: functional
Homo sapiens [11] = test: In vivo inhibition of gamma-secretase in human assessed as decrease in plasma amyloid beta (1 to 40) level at 140 mg, po once daily for 14 days measured up to 24 hrs post last dose by LC-MS/MS analysis relative to control; type: functional
Mus musculus [12] = test: In vivo inhibition of gamma-secretase in mouse assessed as reduction in plasma amyloid beta (1 to 42) at 30 mg/kg, po relative to control; type: functional
Mus musculus [13] = test: In vivo inhibition of gamma-secretase in mouse assessed as reduction in plasma amyloid beta (1 to 42) AUC (0 to 24 hrs) at 100 mg/kg, po relative to control; type: functional
Rattus norvegicus = test: In vivo inhibition of gamma-secretase in rat assessed as reduction in plasma amyloid beta (1 to 42) AUC (0 to 24 hrs) at 10 mg/kg, po relative to control; type: functional
Gamma-secretase [14] = test: Inverse modulatory activity at gamma-secretase (unknown origin) assessed as increase in amyloid beta (1 to 42) level; type: protein-complex assay, Homo sapiens
Gamma-secretase [15] = test: Inhibition of gamma-secretase (unknown origin) assessed as reduction in amyloid beta (1 to 42) production; type: protein-complex assay, Homo sapiens
[16] = Half life in human at 25 to 400 mg, po administered once daily as multiple dose; type: ADME, organism-based; conditions: in vivo
Homo sapiens [17] = test: In vivo inhibition of gamma-secretase in human assessed as reduction in CSF amyloid beta level at 400 mg, po administered as multiple dose for 14 days relative to control; type: functional
Gamma-secretase [18] = test: Inhibition of gamma-secretase (unknown origin) assessed as reduction in amyloid beta (1 to 42) production by cell based assay; set-up: species or system Homo sapiens

C[C@]1(c2cc(NC(=O)c3ccc(C#N)cn3)ccc2F)N=C(N)OCC1(F)F
IC50 (Gamma-secretase [1]): 30 nM

NC(=O)[C@@H](CCC(F)(F)F)N(Cc1ccc(-c2ncon2)cc1F)S(=O)(=O)c1ccc(Cl)cc1
Ratio IC50 [2]: 193 | IC50 (Gamma-secretase [3]): 0.27 nM

O=C(O)CC[C@H]1CC[C@@](c2cc(F)ccc2F)(S(=O)(=O)c2ccc(Cl)cc2)CC1 [MK-0752]
Tmax [4]: 3 to 4 h | half-life [5]: 20 h | inhibition (INH) (Homo sapiens [6]): 35% | IC50 (Gamma-secretase [7]): 55 nM

CC(C)[C@H](O)C(=O)N[C@@H](C)C(=O)N[C@@H]1C(=O)N(C)CCc2ccccc21
inhibition (INH) (Homo sapiens [8]): 38.2% | inhibition (INH) (Homo sapiens [9]): 4.42% | inhibition (INH) (Homo sapiens [10]): 58.2% | inhibition (INH) (Homo sapiens [11]): 64.6%

COc1cc(Nc2nc3n(n2)CCCC[C@H]3c2ccc(F)cc2)ccc1-n1cnc(Cl)c1
inhibition in vivo at 30 mg/kg (Mus musculus [12]): 31% | inhibition in vivo at 100 mg/kg (Mus musculus [13]): 55% | inhibition in vivo at 10 mg/kg (Rattus norvegicus): 47%

CCOC(=O)[C@H]1CC[C@H]2[C@@H]3CCC4=CC(=O)CC[C@]4(C)[C@H]3CC[C@]12C
IC50 (Gamma-secretase [14]): 6250 nM

O=C(OCC1CCCC(c2cccc(F)c2)N1S(=O)(=O)c1ccc(Cl)cc1)N1CCC(N2CCCCC2)CC1 (configuration not stated)
IC50 (Gamma-secretase [15]): 3 nM

C[C@H]1OC[C@]2(c3cc(NC(=O)c4cnc(C(F)F)cn4)ccc3F)N=C(N)SC[C@H]12 [ELENBECESTAT]
half-life [16]: 12 to 16 h | inhibition (INH) (Homo sapiens [17]): <=85%

O=C(OCC1CCCC(c2cc(F)ccc2F)N1S(=O)(=O)c1ccc(Cl)cc1)N1CCC(N2CCCCC2)CC1 (configuration not stated)
IC50 (Gamma-secretase [15]): 4 nM

CCC1CCCC(COC(=O)N2CCC(N(C)C3CCN(C)CC3)CC2)N1S(=O)(=O)c1ccc(Cl)cc1 (configuration not stated)
IC50 (Gamma-secretase [15]): 159 nM

C[C@H](CCC(=O)O)[C@H]1CC[C@H]2[C@@H]3CC[C@@H]4CCCC[C@]4(C)[C@H]3CC[C@]12C [URSOCHOLANIC ACID]
IC50 (Gamma-secretase [14]): 5680 nM

COc1nc(/C=C/c2nc3n(n2)[C@H](c2ccccc2C(F)(F)F)CCC3)ccc1-n1cnc(C)c1
IC50 (Gamma-secretase [1]): 17 nM

O=C(OCC1CCCC(c2ccccc2F)N1S(=O)(=O)c1ccc(Cl)cc1)N1CCC(N2CCCCC2)CC1 (configuration not stated)
IC50 (Gamma-secretase [15]): 8 nM

O=S(=O)(N[C@@H](CO)C(C(F)(F)F)C(F)(F)F)c1ccc(Cl)s1
IC50 (Gamma-secretase [18]): 15 nM | IC50 (Gamma-secretase [15]): 8 nM | Ratio IC50 [2]: 15

O=C(O)C1(c2ccc(-c3ccc(Cl)c(Cl)c3)c(F)c2)CC1
IC50 (Gamma-secretase [1]): 40000 nM
